Consider 1 compound from paper PMC11406516, “The Tuberculosis Drug Candidate SQ109 and Its Analogs Have Multistage Activity against Plasmodium falciparum” (ACS Infectious Diseases, 2024).

A word on the IC50: it is the point on the concentration scale where inhibition reaches its midpoint. For orientation: microsomal CLint means a measure of how fast metabolising enzymes remove a compound, apart from limits set by blood flow. Low values mean slow turnover, high ones rapid turnover. A word on the EC50: it is the concentration at which the effect is half-maximal.

Marks after values point to notes of the source that are not given here.

The subject of one data set is PfDd2 parasites. Put plainly: Asexual blood stage activity, chloroquine-resistant Dd2. The conditions noted are these: Plasmodium falciparum, DD2, read-out: Pf ABS IC50 (Dd2). The format is cell-based. The source says: This strain is highly resistant to chloroquine and other antimalarials and is associated with increased export of e.g., chloroquine from the digestive vacuole.[23] This phenotype was also replicated in PfDd2 parasites, also resistant to chloroquine (among other antimalarials), with 4 and 5 losing activity but 1 similarly active (Table 1). These aromatic compounds may therefore be subject to resistance mechanisms similar to those found with chloroquine.

Data set [1] concerns PfNF54 LGc (stage IV/V gametocytes). Put plainly: PrestoBlue late-stage gametocyte viability assay. The format is cell-based, Plasmodium falciparum. As for the experimental part: Gametocytogenesis was induced on highly synchronized (>95%) asexual ring-stage parasites from PfNF54 at 0.5% parasitemia and 6% hematocrit and thereafter maintained in glucose-deprived media as previously described.[29],[15] After 3 days, the hematocrit was decreased to 4%. Parasites were maintained in complete culture media supplemented with 50 mM N-acetyl-glucosamine 5–10 days post induction to inhibit proliferation of residual asexual blood stages. Gametocyte progression and morphology was also monitored microscopically using Giemsa-stained thin smears.
activity against the sexual stages of P. falciparum was evaluated using the PrestoBlue fluorescence assay as previously described.[4] Activity was measured on PfNF54 stage IV/V gametocytes (2% gametocytemia, 5% hematocrit) previously seeded with compounds (in non-lethal DMSO) for 48 h drug pressure, after which PrestoBlue reagent was added and incubated for 2 h. Fluorescence was detected in the supernatant at 612 nm. Dihydroartemisinin (DHA) was used as a positive drug control.

A further data set deals with oocyst formation. Conditions: cited from earlier work.
Another data set deals with female gametes. More on the design: method as in Reader et al.[4]. Conditions: ref Reader et al.[4]; cited from earlier work.
The next data set deals with male gametes (PfNF54). Also noted: method as in Reader et al.[4]. The conditions noted are these: ref Reader et al.[4]; cited from earlier work.
The next data set is described as follows: in vitro. Conditions: microsomes. In kind it is in vitro ADME. The protocol: The microsomal stability assay used a single-point assay design (Di et al., 2004). Briefly, the compounds were incubated at 1 μM in human, rat, and mouse liver microsomes (0.4 mg/mL) for 30 min at 37 °C. Reactions were quenched by adding ice-cold acetonitrile containing internal standard (carbamazepine, 0.0236 μg/mL). The samples were then centrifuged, and the samples were analyzed by liquid chromatography with tandem mass spectrometry (LC-MS/MS) (Agilent Rapid Resolution HPLC, AB SCIEX 4500 MS) for the disappearance of the parent compound. Half-life, clearance and hepatic […] ratios were determined using standard equations.

In data set [2] the test system is immature-stage gametocytes (IGc, stage II/III). Put plainly: Immature-stage gametocyte activity. In kind it is cell-based. Conditions: Plasmodium falciparum, 48 h drug pressure. The protocol:
Figure 1 SQ109 is a gametocyte-targeting compound. (A) IC50 for parent compound SQ109/1 on asexual parasites (ABS), immature-stage gametocytes (IGc, stage II/III), or late-stage gametocytes (LGc, stage IV/V), under 48 h drug pressure. IC50 ABS: 1.58 ± 0.2 μM; IC50 IGc: 0.38 ± 0.10 μM; IC50 LGc: 0.14 ± 0.03 μM; ** P < 0.01 indicates IGc and LGc vs ABS. (B) Chemical structure and summary of the designed structure–activity relationships (SAR-1, SAR-2 and SAR-3) around SQ109/1. Data are from >2 independent biological repeats, mean ± SE indicated, unpaired Student’s t-test applied.

Data set [3] has as its system African field isolate SB05. The data set is described as follows: Ex vivo activity on clinical isolate SB05. The format is cell-based, Plasmodium falciparum. The source says: (§1) Since SB03/05 are both multiclonal,[27] this warrants further investigation into the activity of this series toward clinical gametocytes.
(§2) (A) Dose–response analysis of SQ109 on clinical isolates SB03 and SB05 in comparison to lab-adapted NF54 P. falciparum parasites. Data are from at least 2 independent biological repeats, mean ± SE indicated, * P < 0.05 is indicated. (B) IC50 for SQ109 analogs 13 and 19 against a contemporary African field isolate SB05. […] TEXT PRINTED IN THE PICTURE: (A) SQ109/1: IC50 (μM), NF54: 1.58 ± 0.20; IC50 (μM), SB03: 0.63 ± 0.01; IC50 (μM), SB05: 0.90 DOUBTS OF THE COPYIST ABOUT THIS PICTURE: Panel A: the three IC50 values are matched to NF54, SB03 and SB05 only by line style (black dashed, grey solid, grey dashed), not by a printed label beside the numbers.

The subject of a further data set is HepG2 cells. The data set is described as follows: HepG2 cytotoxicity, LDH release assay. The conditions noted are these: Homo sapiens, HepG2, 24 h, read-out: HepG2 EC50.
A further data set concerns PfK1. The data set is described as follows: SYBR Green I proliferation assay, asexual blood stages, multidrug-resistant K1. Conditions: Plasmodium falciparum, K1, read-out: Pf ABS IC50 K1.
The next data set deals with clinical isolate SB03. Put plainly: Ex vivo activity on clinical isolate SB03. The format is cell-based. Conditions: Plasmodium falciparum, read-out: IC50 SB03.
Text: as §1, §2

The next data set concerns PfNF54 ABS. More on the design: method as in Stampolaki et al.[5]. Conditions: drug-sensitive NF54; ref Stampolaki et al.[5]; read-out: Pf ABS IC50 NF54; cited from earlier work.
Where [4] appears, read: 48 h drug treatment at 2 μM, ref Reader et al.[4].

Experimental for HepG2 cells: Furthermore, compounds were evaluated against late (stage IV/V) gametocytes from PfNF54 (PfNF54 LGc), with viability detected with PrestoBlue,[15] and orthogonally evaluated for toxicity against a human hepatocellular carcinoma line, HepG2.[16]
Human hepatocellular liver carcinoma cells (HepG2) were cultivated in vitro in Dulbecco’s Modified Eagle’s Medium (DMEM) supplemented with 10% (v/v) heat inactivated fetal bovine serum and 1% (v/v) penicillin/streptomycin.[14] Cells were detached with trypsin treatment at 80% confluency and were seeded in 96-well plates to adhere for 24 h under 5% CO2, humid (95%) conditions. Cells were subsequently exposed to drug pressure for 24 h and cytotoxicity was then determined using the lactate dehydrogenase (LDH) release assay through the colorimetric detection at 450 nm, as previously outlined.[4],[16]
Experimental for PfK1: P. falciparum asexual parasites were cultured from drug-sensitive NF54 (PfNF54) and multidrug resistant strains PfK1. Parasites were maintained in human erythrocytes (O+, suspended at 5% hematocrit) in RPMI-1640 culture medium (23.81 mM sodium bicarbonate, 0.024 mg/mL gentamycin, 25 mM HEPES pH 7.5, 0.2% D-glucose, 0.2 mM hypoxanthine and Albumax II) under hypoxic conditions (5% CO2, 5% O2 and 90% N2) with moderate shaking (60 rpm) at 37 °C. Cultures were synchronized to >95% in the ring stage with 5% (w/v) D-sorbitol treatment.[28]
Activity against the asexual stage of P. falciparum was evaluated using the SYBR Green I-based fluorescence assay as previously described.[4],[16] Cellular proliferation was measured on synchronized in vitro PfNF54 ring-stage parasites (1% parasitemia, 2% hematocrit), following drug pressure for 96 h. Chloroquine was used as the positive drug control for complete inhibition of parasite proliferation.

For `CC(C)=CCC/C(C)=C/CNCCNC1C2CC3CC(C2)CC1C3` (stereo not drawn) [Compound 1, N-geranyl-N′-(2-adamantyl)ethane-1,2-diamine, reference compound], the half-maximal inhibitory concentration (IC50) in the data set on PfDd2 parasites was 1.44 µM; in [1] (Plasmodium falciparum, stage IV/V gametocytes, 48 h drug pressure, read-out: PfNF54 LGc IC50), 0.14 ± 0.03 µM; in data set [2], 0.38 µM; in data set [3] (Plasmodium falciparum, read-out: IC50 SB05), 0.9 µM; in the data set with PfK1, 3.48 ± 0.24 µM; in the data set with clinical isolate SB03, 0.63 ± 0.01 µM. Also, the IC50 in the data set on PfNF54 ABS was 1.58 ± 0.2 µM. For the same compound, the “selectivity toward LGc compared to ABS” value in data set [1] (LGc IC50 vs ABS IC50) is > 10 fold. In addition, in the data set with oocyst formation (setting [4]), the “oocyst formation (% inhibition) TBA” value is given as 36.0 ± 10.6 ^c %. In addition, in the data set on oocyst formation (setting [4]), the “oocyst formation (% inhibition) TRA” value is reported as 76.0 ± 4.75 ^c %. For the same compound, the transmission-reducing activity in the data set with oocyst formation was 80%. In the data set with female gametes, the “female gamete inhibition %” value was 51.74 ± 5.40 ^c %. Further, in the data set on male gametes (PfNF54), the “male gamete inhibition %” value was 72.98 ± 5.97 ^c %. Besides, the values for the microsomal CLint at 1 µM in “in vitro” (human), in “in vitro” (mouse) and in the data set “in vitro” (rat) were 442 µL/min/mg, 410 µL/min/mg and 385 µL/min/mg, respectively. Further, the “shift in IC50, clinical isolates vs NF54” value in data set [3] (contemporary African clinical isolates ex vivo) is listed as “no significant shift”. Besides, the EC50 with HepG2 cells came to 9.21 ± 1.99 µM.
